Laboratory results reported in patent US20080085315A1, “Amorphous ezetimibe and the production thereof” (priority 2006, published 2008).

What was measured:
[1] = Pharmacokinetics in fasted male Sprague Dawley rats, single dose; type: in vivo; details: rat, po, analyte EZE in plasma, single dose 100 mg/kg crystalline EZE or equivalent amount of amorphous EZE
Protocol: The pharmacokinetics of crystalline EZE and the amorphous 1 EZE: 3 PVP+2% SLS spray dried powder were studied in male Sprague Dawley rats in the fasted state. Six rats were single-dosed with either 100 mg/kg crystalline EZE or an equivalent amount of the amorphous EZE of Example 2.

[2] = cited from earlier work

## O=C1[C@H](CC[C@H](O)c2ccc(F)cc2)[C@@H](c2ccc(O)cc2)N1c1ccc(F)cc1 [crystalline, 1-(4-fluorophenyl)-3(R)-[3-(4-fluorophenyl)-3(S)-hydroxypropyl]-4(S)-(4-hydroxyphenyl)-2-azetidinone]
[1]
  Cmax: 5.1 ng/mL
  Tmax: 8 h
[1]; read-out: AUC0-24 h
  AUC(0-t): 64.2 ng·h/mL
[2]
  solubility in water: insoluble in water
